Source: patent US20050209336A1, “EP2 receptor agonists” (priority 2003, published 2005)
Like-named read-outs stand apart in the source and are kept apart here.

Experiments:
human EP4 receptor = biological target: T1, human EP4 receptor (Homo sapiens, UniProt P35408); test: Radioligand ([3H]PGE2) competition displacement binding, human EP4 receptor membranes; conditions: [3H]PGE2 displacement, read-out: pKi EP4 (converted)
T1 construct: expressed in transfected cells
Method: (§1) Membranes were prepared from cells stably transfected with human EP receptor cDNA. In brief, cells were cultured to confluency, scraped from culture flasks, and centrifuged (800 g, 8 minutes, 4° C.). Cells were twice washed in ice cold homogenisation buffer containing 10 mMTris-HCl, 1 mM EDTA.2Na, 250 mM sucrose, 1 mM PMSF, 0.3 mM indomethacin, pH 7.4, homogenised and re-centrifuged as before. The supernatant was stored on ice and pellets re-homogenised and re-spun. Supernatants were pooled and centrifuged at 40000 g, 10 minutes, 4° C. Resultant membrane pellets were stored at −80° C. until use.
(§2) For assay, membranes expressing human EP4, EP3, EP2 or EP1 receptors were incubated in Millipore (MHVBN45) plates containing assay buffer, radiolabelled [^3H]PGE2 and 0.1 to 10 000 nM concentrations of compounds. Incubations were performed at suitable temperatures and for suitable times to allow equilibrium to be reached. Non-specific binding was determined in the presence of 10 uM PGE2. Bound and free radiolabel was separated by vacuum manifold filtration using appropriate wash buffers, and bound radiolabel was determined by scintillation counting. Constituents of each of the buffers are included in table 4 below.
(§3) The affinity or pKi of each compound for each receptor was calculated from the concentration causing 50% radioligand displacement (IC50) using the Cheng-Prusoff equation: [formula]
(§4) This approach follows that set out in Kenakin, T. P., Pharmacologic analysis of drug receptor interaction. Raven Press, New York, 2nd edition.

human EP2 receptor [1] = biological target: T2, human EP2 receptor (Homo sapiens, UniProt P43116); test: Radioligand ([3H]PGE2) competition displacement binding, human EP2 receptor membranes; conditions: human EP2 membranes, [3H]PGE2 displacement, Cheng-Prusoff; mean of 4 experiments; read-out: pKi EP2 (converted)
T2 construct: expressed in transfected cells; host or cells: HEK cells (HEK-EP2)
T2 sequence (P43116 whole entry): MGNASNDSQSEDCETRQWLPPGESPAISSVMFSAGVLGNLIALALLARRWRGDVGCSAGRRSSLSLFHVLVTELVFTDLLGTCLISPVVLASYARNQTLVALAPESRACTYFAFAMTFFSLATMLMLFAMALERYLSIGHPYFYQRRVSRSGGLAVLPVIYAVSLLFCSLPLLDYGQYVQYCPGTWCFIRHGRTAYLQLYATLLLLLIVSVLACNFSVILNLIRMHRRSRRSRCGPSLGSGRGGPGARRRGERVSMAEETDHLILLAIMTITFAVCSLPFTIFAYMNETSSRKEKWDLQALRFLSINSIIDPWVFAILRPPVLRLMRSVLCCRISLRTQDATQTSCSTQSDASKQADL
Method: as §1, §2, §3, §4

human EP3 receptor = biological target: T3, human EP3 receptor (Homo sapiens, UniProt P43115); test: Radioligand ([3H]PGE2) competition displacement binding, human EP3 receptor membranes; conditions: [3H]PGE2 displacement, read-out: pKi EP3 (converted)
T3 construct: expressed in transfected cells
T3 sequence (P43115 1-390): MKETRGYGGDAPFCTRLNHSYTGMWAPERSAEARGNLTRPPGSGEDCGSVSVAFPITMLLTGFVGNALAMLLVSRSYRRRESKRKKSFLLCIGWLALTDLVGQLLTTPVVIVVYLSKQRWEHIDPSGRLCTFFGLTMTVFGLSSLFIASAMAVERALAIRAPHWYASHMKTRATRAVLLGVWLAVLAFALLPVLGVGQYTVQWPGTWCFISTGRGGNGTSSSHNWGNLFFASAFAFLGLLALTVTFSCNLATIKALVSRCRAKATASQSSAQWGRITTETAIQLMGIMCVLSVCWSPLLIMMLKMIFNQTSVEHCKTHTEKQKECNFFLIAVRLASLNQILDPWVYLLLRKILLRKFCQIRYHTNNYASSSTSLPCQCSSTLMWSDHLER
Method: as §1, §2, §3, §4

human EP2 receptor [2] = biological target: T2, human EP2 receptor; test: cAMP production in HEK cells stably expressing the human EP2 receptor; format: cell-based; conditions: 15 min stimulation, 4 experiments, read-out: Mean EC50
Method: The following describes an in vitro assay to determine the effect of compounds on cyclase production, that is, to determine their functional efficacy at the EP2 receptor.
HEK cells stably expressing the human EP2 receptor were used for these assays. HEK-EP2 cells were cultured in 96-well, poly-L-lysine coated plates at a density of 50,000 cells/well, and grown to confluence in humidified […] at 37° C. Culture medium was DMEM supplemented with 10% foetal bovine serum, 100 U/ml penicillin, […], 2.5 µg/ml fungizone, 2 mM glutamine, 250 µg/ml geneticin and 200 µg/ml zeocin.
On reaching confluence, culture media was rinsed off using DMEM with no additions, before 175 µl assay buffer (DMEM containing 1 mM 3-isobutyl-1-methylxanthine and 3 µM indomethacin) was added to each well. This was allowed to incubate for 1 hr before the cells were stimulated with the test compounds (in triplicate) at final concentrations of 10^−9M to 10^−5M for 15 minutes. The assay was terminated by the addition of 25 µl 1M hydrochloric acid. Plates were then frozen for a minimum of 12 hours or until required for radioligand displacement assay.
Plates were thawed quickly at 37° C., and neutralised with 25 µl 1M sodium hydroxide. 30 µl of supernatant was transferred to 96-well Millipore (MAFNOB) plates coated with 0.1% Polyethylenimine. These supernatants were diluted by addition of 90[…]1 cAMP assay buffer (50 mM Tris, 5 mM EDTA, pH 7.0). A cAMP standard curve (10^−11M to 10^−5M) was constructed. 15 µl of 3′:5′-cAMP-dependent protein kinase (final concentration 8 µg/well), and 15 µl [^3H]-cAMP (final concentration 2 nM/well) were added to each well.
Plates were incubated on ice for 2 hours, before bound and free radiolabel were separated by vacuum filtration harvesting on the Millipore manifold, using ice cold water as the termination buffer. Filter plates were allowed to dry overnight, before addition of 50 µl Microscint. Radioactivity was determined using the Microbeta Trilux scintillation counter. cAMP accumulation was determined from the standard curve, and the values plotted as pmoles cAMP/well.

lymphocyte proliferation = test: Lymphocyte proliferation driven by immobilised anti-CD3 antibody; format: cell-based, human; conditions: inhibition of lymphocyte proliferation, 72 h, mean of three donors; for EC50: read-out: Mean EC50; for Mean Log (EC50): log scale
Excerpt: (§5) Lymphocytes are mononuclear leukocytes, which participate in specific immune responses to foreign antigens and in the manifestation of auto-immune diseases. T lymphocytes produce IL-2, a key factor for lymphocyte activation and proliferation, in response to antigen stimulation via the CD3-T cell receptor complex and the pathway involved in this response is the NF-AT. […] A lymphocyte assay was designed to model this response and to determine the effect of test compound on IL-2 production by anti-CD3-stimulated T cells isolated from peripheral blood. This assay uses a sub-optimal dose of an anti-CD3 monoclonal antibody (OKT3, 25 ng/ml) immobilised to a 96-well plate to stimulate a T cell response. The level of IL-2 released into the cell culture supernatants was quantified using a standard sandwich ELISA. Similarly, other cytokines such as TNFα and IFN-γ can also be measured in the same assay.
(§6) Human peripheral blood mononuclear cells from healthy volunteers were isolated from whole blood by Ficoll-Hypaque density centrifugation and adherence to plastic. The non-adherent lymphocyte fraction was used to set up the lymphocyte assay and the adherent monocytes were then recovered by scraping and subsequently used in the monocyte assay.
For the measurement of lymphocyte proliferation driven by immobilised anti-CD3 monoclonal antibody, the assay was set up in the same way as for the measurement of IL-2 release, except that the cells were cultured for 72 hours in the presence or absence of test compounds. Four hours prior to the termination of the proliferation assay, a novel tetrazolium compound solution supplied by Promega in the format of Cell Proliferation Assay Kit was added to individual wells according to the manufacturer's instruction. The plate was then placed back in the incubator for the remaining 4 hours and the […] reaction was measured using a spectrophotometer at an absorbent wavelength of 490 nm (SpectraMax, Molecular Devices) according to the manufacturer's instruction.

[3] = test system: IL-2 production by OKT3 activated T cells; test: Lymphocyte assay: IL-2 production by anti-CD3 (OKT3) stimulated T cells; format: cell-based, human; conditions: inhibition of IL-2 production, 24 h; for EC50: read-out: Mean EC50; for Mean Log (EC50): log scale
Excerpt: as §5, §6
(§7) Lymphocytes were then seeded to a 96-well plate pre-coated with anti-CD3 monoclonal antibody (OKT3) at 25 ng/ml and immediately, the test compounds (Peak 1, mixture 1 acid; Peak 1, mixture 2 acid; AH-13205 racemate; PGE2) in appropriate dilutions were added to corresponding wells according to the experimental design. The plate was incubated for 24 hours at 37° C. with 5% CO2 in air and supernatants were recovered for ELISA analysis at the end of incubation period. The levels of IFN-γ was assessed by using the ProteoPlex 16 well human cytokine array assay kit according to the manufacturer's instruction.

[4] = test system: TNFα production by lymphocytes; test: Lymphocyte assay: TNFα production; format: cell-based, human; conditions: inhibition of TNFα production by lymphocytes, mean of three donors; for EC50: read-out: Mean EC50; for Mean Log (EC50): log scale
Excerpt: as §5, §6, §7

[5] = test system: TNFα production by alveolar macrophages; test: Alveolar macrophage assay: LPS-induced TNFα release; format: cell-based, human; conditions: inhibition of TNFα production, LPS 1 μg/ml, 24 h, mean of three donors
Method: Human lung parenchyma was cut into small pieces and perfused with ice-cold phosphate buffered saline (PBS) to remove contaminating blood and mucus. The tissues were then chopped with scissors in the presence of Minimum Essential Medium supplemented with penicillin, streptomycin, L-glutamine and DNase (0.25 mg/ml). The chopped tissues were shaken gently to dislodge the macrophages. A crude cell suspension was then obtained by the removal of the tissues with a sterile filter (150 μm pore size). The resulting cell suspension was spun and the cell pellet collected. Contaminating red blood cells were depleted with a red blood cell lysis buffer and the remaining cells washed twice with PBS by centrifugation. Alveolar macrophages were then purified from this cell preparation by using a positive selection method for CD14-molecule bearing cells using a VarioMac™ Separator and respective positive selection reagents and columns supplied by Miltenyi Biotec Ltd according to the manufacturer's instruction.
For the assay, alveolar macrophages were resuspended in complete culture medium consisting of RPMI1640 supplemented with 10% foetal calf serum, L-glutamine and antibiotics. The cells were then plated into 24 well plates (4×10^5 cell/well) and incubated overnight at 37° C. with 5% CO2 in air to allow cell adherence. The exhausted medium was then removed from the plates and the plates rinsed briefly with fresh medium before the addition of test compound solutions. The test compounds were incubated with the cells for 30 minutes before the addition of E. Coli LPS (1 μg/ml). The assay plates were incubated in a humidified incubator at 37° C. with 5% CO2 in air for 24 hours. The release of TNFα by the cells into the culture supernatants was quantified using an ELISA kit (DuoSet® human TNFα ELSIA Development System) supplied by R+D Systems (Europe) according to the manufacturer's instruction. Indomethacin at 3 μM was included in all treatments to inhibit the possible release of endogenous prostaglandin E2.

[6] = test system: human myometrial smooth muscle; test: Human myometrial activity: inhibition of electrical field stimulation (EFS) induced contractions; format: cell-based; conditions: at 10^-4M, n=7 donors
Method: The following describes an in vitro functional assay, using human myometrial smooth muscle, to determine the affinity of the test compounds at the EP2 receptor in human tissues.
Sections of human myometrium were prepared from samples of surgically removed uterus longitudinal myometrial muscle strips (2 mm wide by 10 mm long) were then cut and suspended between stainless steel hooks in organ chambers containing oxygenated (95% O2/5% CO2) Krebs solution at 37° C. The composition of the Krebs solution was as follows: NaCl (118.2 mM), KCl (4.69 mM), MgSO4.7H2O (1.18 mM), KH2PO4 (1.19 mM), glucose (11.1 mM), NaHCO3 (25.0 mM), CaCl2.6H2O (2.5 mM), indomethacin 3×10^−6M.
Tissues were placed under a tension equivalent to 25 mN and left overnight at room temperature. The following day the tissues were maintained at 37° C., washed and placed under a tension of 15 mN then allowed to equilibrate for a period of at least 30 minutes. Responses were recorded using isometric transducers coupled to an Apple Macintosh computer via a MacLab interface. After 60 minutes, the muscle sections of the human myometrium were stimulated electrically (15 ms pulse width, for 10 s every 100 s at 15V and 0.5-40 Hz) using parallel platinum wire electrodes and a Multistim D330 pulse stimulator. Upon electrical stimulation, the strips of human myometrial smooth muscle responded with a rapid contraction. Once the response to electrical stimulation had stabilised (stimulated responses differed by no more than 10%), the strips were exposed to increasing concentrations of test compounds (1×10^−7 to 1×10^−4M, incubated for at least 15 minutes at each concentration). At the end of the experiment, application of sodium nitroprusside (SNP, a nitric oxide donor that causes smooth muscle relaxation) (1×10^−4M) was used to produce a standard relaxatory response. To determine the affinity of the compounds, the concentration of test compound required to produce half-maximal effects (EC50) was calculated, as was the maximum response (calculated as a percentage of the standard response produced with SNP).

[7] = mean of four donors (FIG. 9, table 7)
[8] = mean of three to five donors (FIG. 10, table 8)

T1 sequence (P35408 whole entry): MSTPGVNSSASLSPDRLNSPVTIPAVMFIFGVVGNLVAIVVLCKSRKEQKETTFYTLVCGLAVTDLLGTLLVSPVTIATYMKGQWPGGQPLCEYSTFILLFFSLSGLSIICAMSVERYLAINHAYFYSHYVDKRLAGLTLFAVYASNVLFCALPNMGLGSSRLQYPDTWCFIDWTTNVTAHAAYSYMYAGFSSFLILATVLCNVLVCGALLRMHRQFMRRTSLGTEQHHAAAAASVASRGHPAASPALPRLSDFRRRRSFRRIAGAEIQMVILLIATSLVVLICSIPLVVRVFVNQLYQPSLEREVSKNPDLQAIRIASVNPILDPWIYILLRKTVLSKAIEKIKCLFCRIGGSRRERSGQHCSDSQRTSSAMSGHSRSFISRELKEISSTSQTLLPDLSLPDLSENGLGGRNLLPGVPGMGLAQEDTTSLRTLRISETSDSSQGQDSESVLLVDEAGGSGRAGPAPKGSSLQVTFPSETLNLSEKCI

## CCCCC[C@H](O)c1ccc([C@@H]2CCC(=O)[C@H]2CCCCCCC(=O)O)cc1 (single isomer, unassigned) [Peak 2, Mixture 1 acid]
Human EP4 receptor
  Ki: 31600 nM
Human EP2 receptor [1]
  Ki: 1580 nM
Human EP3 receptor
  Ki: 15800 nM
Human EP2 receptor [2]
  EC50: 323 nM

## CCCCC[C@@H](O)c1ccc([C@@H]2CCC(=O)[C@H]2CCCCCCC(=O)O)cc1 (single isomer, unassigned) [Peak 2, Mixture 2 acid]
Human EP4 receptor
  Ki: 15800 nM
Human EP2 receptor [1]
  Ki: 501 nM
Human EP3 receptor
  Ki: 20000 nM
Human EP2 receptor [2]
  EC50: 407 nM

## CCCCC[C@H](O)/C=C/[C@H]1[C@H](O)CC(=O)[C@@H]1C/C=C\CCCC(=O)O [PGE2, prostaglandin E2]
Lymphocyte proliferation
  EC50: 25.8 nM
  Mean Log (EC50): −7.589
[3]; [7]
  EC50: 28 nM
  Mean Log (EC50): −7.554
[3]; [8]
  EC50: 21.1 nM
  Mean Log (EC50): −7.677
[4]
  EC50: 10.7 nM
  Mean Log (EC50): −7.971
[5]; read-out: Mean EC50
  EC50: 125 nM
[5]; log scale
  Mean Log (EC50): −6.904

## CC(C)(C)NCC(O)c1cc(O)cc(O)c1 (stereo not shown) [terbutaline, reference compound]
[6]
  % of the control EFS-induced contraction: 98±5%

## butaprost
Lymphocyte proliferation
  EC50: 996 nM
  Mean Log (EC50): −6.015
[3]; [8]
  EC50: 124 nM
  Mean Log (EC50): −6.906
[4]
  EC50: 292 nM
  Mean Log (EC50): −6.535
